# Measurements reported in ChEMBL document CHEMBL1149199 (Bioorg Med Chem Lett, 2004).
# How the values were obtained:
# [1] = biological target: T1, Sodium-dependent serotonin transporter (Homo sapiens, UniProt P31645)
# Description: Ability to inhibit [3H]paroxetine binding to cloned human serotonin (5-HT) transporter
# [2] = biological target: T2, Sodium-dependent dopamine transporter (Homo sapiens, UniProt Q01959); experiment: Ability to inhibit [3H]mazindol binding to cloned human dopamine (DA) transporter
# [3] = biological target: T3, Sodium-dependent noradrenaline transporter (Homo sapiens, UniProt P23975)
# [4] = biological target: T1, Sodium-dependent serotonin transporter; remark: listed apart in the source
# Description: Ability to inhibit [3H]paroxetine binding to cloned human serotonin (5-HT) transporter; Average of two experiments
# [5] = biological target: T3, Sodium-dependent noradrenaline transporter; experiment: Ability to inhibit [3H]nisoxetine binding to cloned human norepinephrine (NE) transporter; Average of two experiments
# [6] = biological target: T2, Sodium-dependent dopamine transporter
# Description: Ability to inhibit [3H]mazindol binding to cloned human dopamine (DA) transporter; Average of two experiments
# T1 sequence (P31645 whole entry): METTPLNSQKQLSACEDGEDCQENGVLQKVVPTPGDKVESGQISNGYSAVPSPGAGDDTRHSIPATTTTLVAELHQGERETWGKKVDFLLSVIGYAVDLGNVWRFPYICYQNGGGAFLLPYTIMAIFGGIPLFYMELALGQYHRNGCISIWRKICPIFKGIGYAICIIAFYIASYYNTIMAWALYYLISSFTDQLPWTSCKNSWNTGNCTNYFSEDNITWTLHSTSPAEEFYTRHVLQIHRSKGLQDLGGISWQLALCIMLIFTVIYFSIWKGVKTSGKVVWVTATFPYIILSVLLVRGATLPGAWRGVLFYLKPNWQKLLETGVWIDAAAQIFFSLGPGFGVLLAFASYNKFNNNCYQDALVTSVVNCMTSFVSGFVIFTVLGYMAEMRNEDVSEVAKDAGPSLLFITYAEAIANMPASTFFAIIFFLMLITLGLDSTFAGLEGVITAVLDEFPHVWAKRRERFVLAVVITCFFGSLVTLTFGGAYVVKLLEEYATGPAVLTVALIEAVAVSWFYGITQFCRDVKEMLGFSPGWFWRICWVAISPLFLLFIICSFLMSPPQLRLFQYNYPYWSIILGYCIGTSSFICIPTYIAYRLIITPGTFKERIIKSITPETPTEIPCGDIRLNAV
# T3 sequence (P23975 whole entry): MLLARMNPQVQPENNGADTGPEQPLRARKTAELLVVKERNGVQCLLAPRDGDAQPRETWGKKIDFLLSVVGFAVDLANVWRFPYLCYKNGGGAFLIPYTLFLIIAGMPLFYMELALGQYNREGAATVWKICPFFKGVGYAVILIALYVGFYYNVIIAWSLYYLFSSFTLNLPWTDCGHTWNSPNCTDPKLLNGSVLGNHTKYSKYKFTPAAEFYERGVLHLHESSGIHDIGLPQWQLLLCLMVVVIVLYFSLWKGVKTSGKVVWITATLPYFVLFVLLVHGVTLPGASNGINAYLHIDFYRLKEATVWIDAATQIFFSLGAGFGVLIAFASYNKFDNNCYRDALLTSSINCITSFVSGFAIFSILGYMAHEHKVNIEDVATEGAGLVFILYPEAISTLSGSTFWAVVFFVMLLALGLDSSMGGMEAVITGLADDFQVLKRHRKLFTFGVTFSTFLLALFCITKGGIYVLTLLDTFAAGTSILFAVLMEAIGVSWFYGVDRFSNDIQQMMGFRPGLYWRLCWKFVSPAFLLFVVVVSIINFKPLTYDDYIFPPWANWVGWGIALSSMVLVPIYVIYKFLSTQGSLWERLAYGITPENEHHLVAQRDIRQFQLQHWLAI
# T2 sequence (Q01959 whole entry): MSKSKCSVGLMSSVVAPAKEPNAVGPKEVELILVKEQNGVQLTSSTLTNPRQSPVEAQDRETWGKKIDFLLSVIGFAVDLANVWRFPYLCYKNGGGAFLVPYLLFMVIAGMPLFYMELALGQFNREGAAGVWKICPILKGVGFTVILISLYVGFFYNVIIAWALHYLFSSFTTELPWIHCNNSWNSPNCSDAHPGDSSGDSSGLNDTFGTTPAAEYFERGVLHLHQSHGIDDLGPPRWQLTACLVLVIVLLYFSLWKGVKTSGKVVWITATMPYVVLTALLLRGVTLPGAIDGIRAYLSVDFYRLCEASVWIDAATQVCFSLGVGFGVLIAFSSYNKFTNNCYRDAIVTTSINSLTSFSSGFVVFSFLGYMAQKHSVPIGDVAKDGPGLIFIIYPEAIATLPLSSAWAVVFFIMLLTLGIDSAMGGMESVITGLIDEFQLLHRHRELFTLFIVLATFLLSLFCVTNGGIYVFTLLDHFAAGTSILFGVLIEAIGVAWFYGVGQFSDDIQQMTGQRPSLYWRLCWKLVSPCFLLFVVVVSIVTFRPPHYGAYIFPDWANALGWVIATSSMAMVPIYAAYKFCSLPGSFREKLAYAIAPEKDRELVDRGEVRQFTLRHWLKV
SMILES,Ki [1],Ki [2],Ki [3],Ki [4],Ki [5],Ki [6]
CNCC[C@H](Oc1cccc2c(O)c(OC)ccc12)c1cccs1,0.266 µM,2.81 µM,0.92 µM,,,
CNCC[C@H](Oc1cccc2cc(O[C@@H]3O[C@H](C(=O)O)[C@@H](O)[C@H](O)[C@H]3O)ccc12)c1cccs1,1.46 µM,> 10 µM,5.45 µM,,,
CNCC[C@H](Oc1ccc(O[C@@H]2O[C@H](C(=O)O)[C@@H](O)[C@H](O)[C@H]2O)c2ccccc12)c1cccs1,> 10 µM,3.51 µM,> 10 µM,,,
CNCC[C@H](Oc1cccc2c(O[C@@H]3O[C@H](C(=O)O)[C@@H](O)[C@H](O)[C@H]3O)c(O[C@@H]3O[C@H](C(=O)O)[C@@H](O)[C@H](O)[C@H]3O)ccc12)c1cccs1,> 10 µM,> 10 µM,> 10 µM,,,
CNCC[C@H](Oc1cccc2c(O[C@@H]3O[C@H](C(=O)O)[C@@H](O)[C@H](O)[C@H]3O)c(OC)ccc12)c1cccs1,> 10 µM,> 10 µM,> 10 µM,,,
CNCC[C@H](Oc1cccc2c(O)cccc12)c1cccs1,,,,0.0096 µM,0.0184 µM,0.241 µM
CNCC[C@H](Oc1cccc2c(OC)c(O)ccc12)c1cccs1,,,,0.00366 µM,0.235 µM,0.353 µM
CNCC[C@H](Oc1ccc(O)c2ccccc12)c1cccs1,,,,0.0639 µM,0.0971 µM,0.13 µM
CNCC[C@H](Oc1cccc2cc(O)ccc12)c1cccs1,,,,0.00106 µM,0.00472 µM,0.163 µM
CNCC[C@H](Oc1cccc2c(OS(=O)(=O)O)c(OC)ccc12)c1cccs1,3.12 µM,> 10 µM,> 10 µM,,,
CNCC[C@H](Oc1cccc2c(O)c(O)ccc12)c1cccs1 (stereo in doubt; form 1),0.0317 µM,> 10 µM,0.554 µM,,,
CNCC[C@H](Oc1cccc2c(O)c(O)ccc12)c1cccs1 (stereo in doubt; form 2),0.12 µM,7.27 µM,0.695 µM,,,
